This is an account of results in ChEMBL document CHEMBL1151007, “Synthesis and in vitro cytotoxicity of (RS)-20-desethyl-20-substituted camptothecin analogues” (Bioorg Med Chem Lett, 1996).

What all share (type): functional, cell-based
Assay [1] deals with A 172. The experiment in a line: In vitro cytotoxicity against A172 human tumor cell lines.
For assay [2], the system named is Caov-3 cell line. The experiment in a line: In vitro cytotoxicity against CAOV-3 human tumor cell line.
Assay [3] relates to DLD-1. Put plainly: In vitro cytotoxicity against DLD-1 human tumor cell lines.
For assay [4], the system named is KATO III stomach cancer cell line. The experiment in a line: In vitro cytotoxicity against KATO-III human tumor cell line.
Assay [5] relates to L1210. Put plainly: In vitro cytotoxicity against L1210 mouse leukemia tumor cell line.

For the compound `O=C(Nc1ccccc1)OCC1(O)C(=O)OCc2c1cc1n(c2=O)Cc2cc3ccccc3nc2-1` (stereo not given), the IC50 (as a rule, the point on the concentration scale where inhibition reaches its midpoint) in assay [1] is 2.77 µM; in assay [2] it was 1.58 µM; in assay [3] it was 4.24 µM; in assay [4], 13.1 µM; in assay [5] it was 2.77 µM.
For the compound `O=C1OCc2c(cc3n(c2=O)Cc2cc4ccccc4nc2-3)C1(O)CO` (stereo not given), the IC50 in assay [1] was 7.19 µM; in assay [2] it was 2.17 µM; in assay [3], 17.8 µM; in assay [4], 11.5 µM; in assay [5], 3.97 µM.
Regarding `CC(=O)OCC1(O)C(=O)OCc2c1cc1n(c2=O)Cc2cc3ccccc3nc2-1` (stereo not given), the IC50 in assay [1] came out at 1.53 µM; in assay [2] it was 0.82 µM; in assay [3] it was 1.22 µM; in assay [4], 9.43 µM; in assay [5] it was 1.71 µM.
Take `COCCOCOCCC1(O)C(=O)OCc2c1cc1n(c2=O)Cc2cc3ccccc3nc2-1` (stereo not given): the half-maximal inhibitory concentration (IC50) in assay [1] was determined as 4.04 µM; in assay [2], 1.92 µM; in assay [3] it was 15.1 µM; in assay [4], 53 µM; in assay [5], 4.97 µM.
As to `COCCOCOCC1(O)C(=O)OCc2c1cc1n(c2=O)Cc2cc3ccccc3nc2-1` (stereo not given), the half-maximal inhibitory concentration (IC50) came out at 4.38 µM in assay [1]; 6 µM in assay [2]; 25.8 µM in assay [3]; 83.5 µM in assay [4]; 22.2 µM in assay [5].
Regarding `O=C1OCc2c(cc3n(c2=O)Cc2cc4ccccc4nc2-3)C1(O)CCO` (stereo not given), the IC50 in assay [1] is 4.47 µM; in assay [2], 6.31 µM; in assay [3], 2.5 µM; in assay [4], 9.72 µM; in assay [5] it was 6.31 µM.
Consider `CCOCOCCC1(O)C(=O)OCc2c1cc1n(c2=O)Cc2cc3ccccc3nc2-1` (stereo not given), for which the 50% inhibitory concentration (IC50) in assay [1] came out at 1.37 µM; in assay [2], 1.85 µM; in assay [3], 1.07 µM; in assay [4], 19.3 µM; in assay [5], 1.42 µM.
As for `COCC(=O)OCC1(O)C(=O)OCc2c1cc1n(c2=O)Cc2cc3ccccc3nc2-1` (stereo not given), the half-maximal inhibitory concentration (IC50) in assay [1] is 17.6 µM; in assay [2] it was 12.9 µM; in assay [3], 47.1 µM; in assay [4], greater than 100 µM; in assay [5], 13.6 µM.
For `CC(C)NC(=O)OCCC1(O)C(=O)OCc2c1cc1n(c2=O)Cc2cc3ccccc3nc2-1` (stereo not given), the 50% inhibitory concentration (IC50) in assay [1] worked out at 5.25 µM; in assay [2], 1.42 µM; in assay [3], 11 µM; in assay [4], 46.5 µM; in assay [5] it was 9.41 µM.
As to `CC(=O)OCCC1(O)C(=O)OCc2c1cc1n(c2=O)Cc2cc3ccccc3nc2-1` (stereo not given), the concentration for half-maximal inhibition (IC50) was 3.99 µM in assay [1]; 4.23 µM in assay [2]; 7.04 µM in assay [3]; 0.98 µM in assay [4]; 5.09 µM in assay [5].
For the compound `O=C(Nc1ccccc1)OCCC1(O)C(=O)OCc2c1cc1n(c2=O)Cc2cc3ccccc3nc2-1` (stereo not given), the IC50 in assay [1] was found to be 0.06 µM; in assay [2] it was 3.72 µM; in assay [3], 1.2 µM; in assay [4], 5.38 µM; in assay [5] it was 6.87 µM.
Take `COCOCC1(O)C(=O)OCc2c1cc1n(c2=O)Cc2cc3ccccc3nc2-1` (stereo not given): the IC50 worked out at 8.39 µM in assay [1]; 4 µM in assay [2]; 2.41 µM in assay [3]; 23.2 µM in assay [4]; 1.65 µM in assay [5].
For the compound `COCC(=O)OCCC1(O)C(=O)OCc2c1cc1n(c2=O)Cc2cc3ccccc3nc2-1` (stereo not given), the IC50 worked out at 6.99 µM in assay [1]; 6.39 µM in assay [2]; 31.8 µM in assay [3]; 3.05 µM in assay [4]; 24.5 µM in assay [5].
In the case of `CCOCOCC1(O)C(=O)OCc2c1cc1n(c2=O)Cc2cc3ccccc3nc2-1` (stereo not given), the IC50 in assay [1] came to 11.1 µM; in assay [2] it was 17.6 µM; in assay [3] it was 17.1 µM; in assay [4] it was 40.7 µM; in assay [5], 3.4 µM.
Consider `CC(C)NC(=O)OCC1(O)C(=O)OCc2c1cc1n(c2=O)Cc2cc3ccccc3nc2-1` (stereo not given), for which the IC50 in assay [1] stood at 11.2 µM; in assay [2] it was 22.5 µM; in assay [3], 23.4 µM; in assay [4] it was 72.3 µM; in assay [5] it was 5.97 µM.
